From US20240108618A1, “KRAS G12C INHIBITOR DOSING REGIMENS” (Eli Lilly and Company, priority 2022, published 2024)
“And” between values parts separate entries of the source, which are not always exact repeats. Identical values can stand only once. Marks after values point to notes of the source that are not given here.

Key:
[1] = tested on: SW1463; experiment: SW1463 (CRC) xenograft model; assay type: in vivo, mouse
Description: (§1) For xenograft models of H1373, HCC44, MiaPaca-2, SW1463, SW837, KYSE-410 and UM-UC-3, typically 5-10×10^6 cells in a 1:1 matrigel mix (0.2 mL total volume) are implanted by subcutaneous injection in hind leg of nude mice. […] Treatment is initiated with oral administration (gavage) of testing compound or vehicle (20% captisol, 25 mM phosphate, pH2.0) in 0.2 mL volume when tumor size reaches approximately 200-300 mg. Tumor growth and body weight are monitored over time to evaluate efficacy and signs of toxicity. For EL3187 PDX model, frozen vials containing tumor fragments are thawed at 37° C. in a water bath. The tumor fragments are transferred to 50 mL Falcon tube and the ice cold DMEM medium is slowly added into the tube to a total volume of 35 mL. Then the tumor fragments are centrifuged at 130×g for 2 minutes at 4° C. and supernatant is aspirated. This washing step is repeated twice and the tumor fragments are resuspended in 10 mL DMEM for implantation into athymic nude-Foxn1nu mice (Envigo RMS, Inc., Mount Comfort, Indiana). Once tumor volumes reach 800 to 1000 mm^3, animals are sacrificed and tumors are harvested using aseptic technique. Fresh tumors are cut into 10 to 15 mm^3 fragments and placed into cold Gibco hibernate medium. The tumor fragments are subcutaneously implanted into animals with a 10 g trochar needle. When tumor size reaches 200 to 300 mm^3, the animals are randomized for compound treatment.
(§2) Among models listed in Table 2, EL3187 is a patient-derived xenograft (PDX) model, and all other are tumor xenograft models.

[2] = tested on: UM-UC-3; experiment: UM-UC-3 (bladder) xenograft model; assay type: in vivo, mouse
Description: as §1, §2

[3] = NCT04956640 Phase 1a clinical pharmacokinetics, monotherapy
From the text: (§3) NCT04956640 includes Phase 1a dose escalation (Part A of NCT04956640, see Table 3) followed by a Phase 1b dose expansion (Parts B to E of NCT04956640, see Table 4). […] Phase 1b dose expansion will include 12 cohorts (See Table 4) to further evaluate safety and clinical activity.

[4] = tested on: KRAS G12C-mutant advanced CRC; experiment: NCT04956640 Phase 1b Cohort C2 (with cetuximab) clinical response (BOR, ORR, DCR, DOR, TTR, % change from baseline, treatment duration); assay type: in vivo, human; design: key to Best Response: CR: complete response; PR: partial response; uPR: a partial response pending confirmation; SD: stable disease; PD: progressive disease; NE: not estimable; details: for Duration of response (DOR) <6 months / Overall response status: Censored / Reason censored: Alive without documented disease progression / Time to response (TTR) <2 months: Phase 1b Cohort C2 responders
Description: The term “BOR” as used herein refers to best overall response based on investigator assessments using RECIST criteria (version 1.1). The minimum duration for BOR of SD is at least 6 weeks after the date of first dose of study drug.
The term “DOR” as used herein refers to duration of response, wherein DOR in months is calculated as the event or censoring date minus the response start date plus 1 day divided by 30.4375.
The term “ORR” as used herein refers to objective response rate, wherein objective response rate is the proportion of patients with BOR of CR or PR. Objective response rate, unconfirmed, is the proportion of patients with BOR of CR, PR, or uPR.
The term “TTR” as used herein refers to time to response, wherein TTR in months is calculated as response start date minus first dose date plus 1 day divided by 30.4375.
as §3

[5] = tested on: KRAS G12C-mutant advanced solid tumors; experiment: NCT04956640 Phase 1a, Phase 1b Cohort B4 and Cohort C2 pooled statements
From the text: as §3

[6] = Phase 1b Cohort C2, Total (N = 11)
[7] = Phase 1b Cohort C2, individual patients, starting dose 100 BID, no prior KRAS G12Ci, listed as compound of Formula I
[8] = Phase 1b Cohort C2, individual patients, starting dose 150 BID, no prior KRAS G12Ci, listed as compound of Formula I
[9] = Phase 1b Cohort C2, starting dose 100 mg BID (N = 6)
[10] = Phase 1b Cohort C2, starting dose 150 mg BID (N = 5)
[11] = starting dose 100 mg BID (N = 6)
[12] = starting dose 150 mg BID (N = 5)

C=CC(=O)N1CCN2C(=O)c3cc(F)c(-c4ccc(F)c5sc(N)c(C#N)c45)c(Cl)c3OCC[C@H]2C1 (single isomer, unassigned) [Formula I]
tumor growth inhibition (%) or regression (− %) ([1]; 5 mg/kg BID x28): 48.8%
tumor growth inhibition (%) or regression (− %) ([1]; 5 mg/kg QD x28): 52.5%
tumor growth inhibition (%) or regression (− %) ([1]; 10 mg/kg BID x28): 79.5%
tumor growth inhibition (%) or regression (− %) ([1]; 10 mg/kg QD x28): 78.3%
tumor growth inhibition (%) or regression (− %) ([1]; 30 mg/kg BID x28): 98.8%
tumor growth inhibition (%) or regression (− %) ([1]; 30 mg/kg QD x28): 89.8%
tumor growth inhibition (%) or regression (− %) ([2]; 5 mg/kg BID x28): 45.3%
tumor growth inhibition (%) or regression (− %) ([2]; 5 mg/kg QD x28): 34.3%
tumor growth inhibition (%) or regression (− %) ([2]; 10 mg/kg BID x28): 75%
tumor growth inhibition (%) or regression (− %) ([2]; 10 mg/kg QD x28): 33.6%
tumor growth inhibition (%) or regression (− %) ([2]; 30 mg/kg BID x28): 85%
tumor growth inhibition (%) or regression (− %) ([2]; 30 mg/kg QD x28): 83.1%
AUC ([3]; 50 mg BID): 634 (53%) ng.h/mL
Cmax ([3]; 50 mg BID): 144 (45%) ng/ml
Ctrough-Cmin ([3]; 50 mg BID): 23.8 (90%)^c ng/mL
t½ ([3]; 50 mg BID): 3.03 (41%)^c h
AUC ([3]; 100 mg BID): 1475 (77%) ng.h/mL
Cmax ([3]; 100 mg BID): 305 (75%) ng/ml
Ctrough-Cmin ([3]; 100 mg BID): 44.9 (73%) ng/mL
Ctrough-Cmin compared with TEC90 ([3]; 100 mg BID): > 25 ng/mL
t½ ([3]; 100 mg BID): 3.01 (33%)^b h
AUC ([3]; 150 mg BID): 1795 (47%) ng.h/mL
Cmax ([3]; 150 mg BID): 368 (51%) ng/ml
Ctrough-Cmin ([3]; 150 mg BID): 54.5 (60%) ng/mL
Ctrough-Cmin compared with TEC90 ([3]; 150 mg BID): > 25 ng/mL
t½ ([3]; 150 mg BID): 3.41 (32%) h
AUC ([3]; 200 mg BID): 1372 (59%) ng.h/mL
Cmax ([3]; 200 mg BID): 325 (61%) ng/ml
Ctrough-Cmin ([3]; 200 mg BID): 40.3 (73%) ng/mL
Ctrough-Cmin compared with TEC90 ([3]; 200 mg BID): > 25 ng/mL
t½ ([3]; 200 mg BID): 2.35 (58%) h
Best overall response (BOR): Complete Response (CR) [4, 6]: 0 (0.0) n (%)
Best overall response (BOR): Not Evaluable (NE) [4, 6]: 0 (0.0) n (%)
Best overall response (BOR): Partial Response (PR) [4, 6]: 3 (27.3) n (%)
Best overall response (BOR): Partial Response, pending confirmation and ongoing (uPR) [4, 6]: 2 (18.2) n (%)
Best overall response (BOR): Progressive Disease (PD) [4, 6]: 0 (0.0) n (%)
Disease control rate (CR + PR + iPR + SD), Number of patients [4, 6]: 11 (100.0) n (%)
Objective response rate (CR + PR), Number of patients [4, 6]: 3 (27.3) n (%)
Objective response rate, confirmed and unconfirmed (CR + PR + uPR), Number of patients [4, 6]: 5 (45.5) n (%)
Patients with best overall response of CR or PR [4, 6]: 3 (27.3) N′ (%)
Time to response (months), Interquartile range [4, 6]: 0.33 months
Time to response (months), Median [4, 6]: 1.31 months
Time (months) of Progressive Disease ([4]; Phase 1b Cohort C2, individual patients, starting dose 100 BID, no prior KRAS G12Ci): 4.4 months
% Change from Baseline in Sum of Diameters for all Target Lesions [4, 7]: −22.0% and −23.4% and −38.9% and −48.7% and −55.4% and −67.6%
Best Response [4, 7]: SD (3×) and PR Confirmed (3×)
Time (months) of Partial Response - Confirmed [4, 7]: 1.3 months and 1.6 months and 1.2 months
% Change from Baseline in Sum of Diameters for all Target Lesions [4, 8]: −13.6% and −19.4% and −36.7% and −45.7% and −5.7%
Best Response [4, 8]: SD (3×) and PR Pending (2×)
Time (months) of Partial Response - Pending Confirmation and Ongoing [4, 8]: 2.1 months and 1.4 months
Best overall response (BOR): Complete Response (CR) [4, 9]: 0 (0.0) n (%)
Best overall response (BOR): Not Evaluable (NE) [4, 9]: 0 (0.0) n (%)
Best overall response (BOR): Partial Response (PR) [4, 9]: 3 (50.0) n (%)
Best overall response (BOR): Partial Response, pending confirmation and ongoing (uPR) [4, 9]: 0 (0.0) n (%)
Best overall response (BOR): Progressive Disease (PD) [4, 9]: 0 (0.0) n (%)
Disease control rate (CR + PR + iPR + SD), Number of patients [4, 9]: 6 (100.0) n (%)
Objective response rate (CR + PR), Number of patients [4, 9]: 3 (50.0) n (%)
Objective response rate, confirmed and unconfirmed (CR + PR + uPR), Number of patients [4, 9]: 3 (50.0) n (%)
Patients with best overall response of CR or PR [4, 9]: 3 (50.0) N′ (%)
Time to response (months), Interquartile range [4, 9]: 0.33 months
Time to response (months), Median [4, 9]: 1.31 months
Best overall response (BOR): Complete Response (CR) [4, 10]: 0 (0.0) n (%)
Best overall response (BOR): Not Evaluable (NE) [4, 10]: 0 (0.0) n (%)
Best overall response (BOR): Partial Response (PR) [4, 10]: 0 (0.0) n (%)
Best overall response (BOR): Partial Response, pending confirmation and ongoing (uPR) [4, 10]: 2 (40.0) n (%)
Best overall response (BOR): Progressive Disease (PD) [4, 10]: 0 (0.0) n (%)
Disease control rate (CR + PR + iPR + SD), Number of patients [4, 10]: 5 (100.0) n (%)
Objective response rate (CR + PR), Number of patients [4, 10]: 0 (0.0) n (%)
Objective response rate, confirmed and unconfirmed (CR + PR + uPR), Number of patients [4, 10]: 2 (40.0) n (%)
Patients with best overall response of CR or PR [4, 10]: 0 (0.0) N′ (%)
Duration of response (DOR) <6 months ([4]; Total (N = 11)): 3 (100.0) n (%)
Overall response status: Censored ([4]; Total (N = 11)): 3 (100.0) n (%)
Reason censored: Alive without documented disease progression ([4]; Total (N = 11)): 3 (100.0) n (%)
Time to response (TTR) <2 months ([4]; Total (N = 11)): 3 (100.0) n (%)
Duration of response (DOR) <6 months [4, 11]: 3 (100.0) n (%)
Overall response status: Censored [4, 11]: 3 (100.0) n (%)
Reason censored: Alive without documented disease progression [4, 11]: 3 (100.0) n (%)
Time to response (TTR) <2 months [4, 11]: 3 (100.0) n (%)
Duration of response (DOR) <6 months [4, 12]: 0 (NE) n (%)
Overall response status: Censored [4, 12]: 0 (NE) n (%)
Reason censored: Alive without documented disease progression [4, 12]: 0 (NE) n (%)
Time to response (TTR) <2 months [4, 12]: 0 (NE) n (%)
median time to response ([4]; human, in vivo): 1.3 month
DLTs ([5]; as of January 2023): No DLTs were observed
MTD ([5]; as of January 2023): MTD was not reached
patients with a grade 3 or greater TEAE ([5]; as of January 2023): four
patients with dose reduction due to TRAE ([5]; as of January 2023): one
patients with permanent discontinuation due to TRAE ([5]; as of January 2023): one
TRAE grade in seven patients who discontinued a prior KRAS G12C inhibitor due to toxicity ([5]; in vivo): ≤ 2 grade
median time to response ([5]; in vivo): 1.4 month
